Assay results taken from patent publication US8329755B2, “Methods for treating retroviral infections” (Roche Palo Alto LLC, priority 2004, dated 2012).

Row | Structure (SMILES) | melting point [°C]
1 | NS(=O)(=O)c1ccc(NC(=O)Cc2cc3c(c(C(=O)c4ccc(Cl)cc4)c2)OCC3)cc1 [Compound I-241, 2-[7-(4-Chloro-benzoyl)-2,3-dihydro-benzofuran-5-yl]-N-(4-sulfamoyl-phenyl)-acetamide] | 259 to 261
2 | CC(C)CCC(=O)NS(=O)(=O)c1ccc(NC(=O)Cc2ccc(Cl)c(Oc3cc(Cl)cc(C#N)c3)c2F)c(Cl)c1.[Na] | 195.6 to 197
3 | COc1cc(CC(=O)Nc2ccc(S(N)(=O)=O)cc2C)cc(Oc2cc(C#N)ccc2Cl)c1 [Compound I-103, 2-[3-(2-Chloro-5-cyano-phenoxy)-5-methoxy-phenyl]-N-(2-methyl-4-sulfamoyl-phenyl)-acetamide] | 179.8 to 184
4 | CCc1ccc(CC(=O)Nc2ccccc2Cl)cc1Oc1cc(Cl)cc(Br)c1 [Compound I-24, 2-[3-(3-Bromo-5-chloro-phenoxy)-4-ethyl-phenyl]-N-(2-chloro-phenyl)-acetamide] | 119.9 to 122.2
5 | CNS(=O)(=O)c1ccc(NC(=O)Cc2ccc(Cl)c(Oc3cc(Cl)cc(C#N)c3)c2F)c(Cl)c1 [Compound I-168, 2-[4-Chloro-3-(3-chloro-5-cyano-phenoxy)-2-fluoro-phenyl]-N-(2-chloro-4-methylsulfamoyl-phenyl)-acetamide] | 199.1 to 200
6 | CCc1ccc(CC(=O)Nc2ccccc2Cl)cc1Oc1cc(Cl)cc(Br)c1Cl [Compound I-37, 2-[3-(3-Bromo-2,5-dichloro-phenoxy)-4-ethyl-phenyl]-N-(2-chloro-phenyl)-acetamide] | 146.5 to 147.6
7 | O=C(Cc1ccc(Cl)c(C(=O)c2cc(Cl)ccc2Cl)c1)Nc1ccccc1 [Compound I-251, 2-[4-Chloro-3-(2,5-dichloro-benzoyl)-phenyl]-N-phenyl-acetamide] | 167.1 to 168.5
8 | COc1ccc(CC(=O)Nc2ccc(S(N)(=O)=O)cc2Cl)cc1Oc1cc(Cl)cc(C#N)c1 [Compound I-64, 2-[3-(3-Chloro-5-cyano-phenoxy)-4-methoxy-phenyl]-N-(2-chloro-4-sulfamoyl-phenyl)-acetamide] | 186.3 to 189.7
9 | CCc1ccc(CC(=O)Nc2ccc(S(N)(=O)=O)cc2)cc1Oc1c(Cl)cccc1Cl [Compound I-20, 2-[3-(2,6-Dichloro-phenoxy)-4-ethyl-phenyl]-N-(4-sulfamoyl-phenyl)-acetamide] | 222.5 to 225
10 | Cc1cc(S(N)(=O)=O)ccc1NC(=O)Cc1ccc(C)c(C(=O)c2cc(C#N)ccc2C)c1 [Compound I-265, 2-[3-(5-Cyano-2-methyl-benzoyl)-4-methyl-phenyl]-N-(2-methyl-4-sulfamoyl-phenyl)-acetamide] | 224.3 to 228.1
11 | COCCC(=O)N(C)S(=O)(=O)c1ccc(NC(=O)Cc2ccc(Cl)c(Oc3cc(Cl)cc(C#N)c3)c2F)c(Cl)c1 [Compound I-172, 2-[4-Chloro-3-(3-chloro-5-cyano-phenoxy)-2-fluoro-phenyl]-N-{2-chloro-4-[(3-methoxy-propionyl)-methyl-sulfamoyl]-phenyl}-acetamide] | 199.3 to 203
12 | Cc1cc(C#N)cc(Oc2c(Cl)ccc(CC(=O)Nc3ccc(S(N)(=O)=O)cc3C)c2F)n1 [Compound I-124, 2-[4-Chloro-3-(4-cyano-6-methyl-pyridin-2-yloxy)-2-fluoro-phenyl]-N-(2-methyl-4-sulfamoyl-phenyl)-acetamide] | 230.1 to 230.7
13 | CCc1cc(CC(=O)Nc2ccc(S(N)(=O)=O)cc2C)cc(Oc2cc(C#N)ccc2Cl)c1 [Compound I-106, 2-[3-(2-Chloro-5-cyano-phenoxy)-5-ethyl-phenyl]-N-(2-methyl-4-sulfamoyl-phenyl)-acetamide] | 231.6 to 233.1
14 | Cc1cc(S(N)(=O)=O)ccc1NC(=O)Cc1ccc(Cl)c(Oc2cc(C#N)cc(C#CCN(C)C)c2)c1F [Compound I-187, 2-{4-Chloro-3-[3-cyano-5-(3-dimethylamino-prop-1-ynyl)-phenoxy]-2-fluoro-phenyl}-N-(2-methyl-4-sulfamoyl-phenyl)-acetamide] | 156.2 to 158.2
15 | CCc1ccc(CC(=O)Nc2ccccc2Cl)cc1Oc1cc(Cl)ccc1Br [Compound I-16, 2-[3-(2-Bromo-5-chloro-phenoxy)-4-ethyl-phenyl]-N-(2-chloro-phenyl)-acetamide] | 154 to 155.5
16 | CC(C)CC(=O)NS(=O)(=O)c1ccc(NC(=O)Cc2ccc(Cl)c(Oc3cc(Cl)cc(C#N)c3)c2F)c(Cl)c1.[Na] | 159.3 to 163.4
17 | Cc1ccc(CC(=O)Nc2ccccc2Cl)cc1Oc1cc(Cl)ccc1Br [Compound I-33, 2-[3-(2-Bromo-5-chloro-phenoxy)-4-methyl-phenyl]-N-(2-chloro-phenyl)-acetamide] | 133.9 to 135.9
18 | Cc1cc(S(=O)(=O)CC(=O)O)ccc1NC(=O)Cc1ccc(C)c(Oc2cc(Cl)cc(C#N)c2)c1 [Compound I-152, (4-{2-[3-(3-Chloro-5-cyano-phenoxy)-4-methyl-phenyl]-acetylamino}-3-methyl-benzenesulfonyl)-acetic acid] | 180.5 to 181.4

Results, then the compound that gave them:

Row | melting point [°C] | Structure (SMILES)
19 | 188 to 198 | CCc1ccc(CC(=O)Nc2ccc(S(N)(=O)=O)cc2)cc1Oc1cc(C#N)cc(C(F)F)c1 [Compound I-91, 2-[3-(3-Cyano-5-difluoromethyl-phenoxy)-4-ethyl-phenyl]-N-(4-sulfamoyl-phenyl)-acetamide]
20 | 218.3 to 221.4 | COc1ccc(CC(=O)Nc2ccc(S(N)(=O)=O)cc2)cc1Oc1cc(Cl)cc(C#N)c1 [Compound I-57, 2-[3-(3-Chloro-5-cyano-phenoxy)-4-methoxy-phenyl]-N-(4-sulfamoyl-phenyl)-acetamide]
21 | 146.6 to 147.2 | CCc1ccc(CC(=O)Nc2ccccc2Cl)cc1Oc1cc(Br)cc(F)c1Cl [Compound I-41, 2-[3-(5-Bromo-2-chloro-3-fluoro-phenoxy)-4-ethyl-phenyl]-N-(2-chloro-phenyl)-acetamide]
22 | 175.7 to 178.3 | COc1ccc(CC(=O)Nc2ccccc2Cl)cc1Oc1cc(Cl)cc(C#N)c1 [Compound I-61, 2-[3-(3-Chloro-5-cyano-phenoxy)-4-methoxy-phenyl]-N-(2-chloro-phenyl)-acetamide]
23 | 134 to 137.1 | CN(C(=O)Cc1ccc(Cl)c(Oc2cc(Cl)cc(C#N)c2)c1F)c1ccccc1Cl [Compound I-111, 2-[4-Chloro-3-(3-chloro-5-cyano-phenoxy)-2-fluoro-phenyl]-N-(2-chloro-phenyl)-N-methyl-acetamide]
24 | 163.3 to 164.4 | Cc1ccc(CC(=O)Nc2ccccc2Cl)c(F)c1Oc1cc(C#N)cc(C(F)F)c1 [Compound I-86, N-(2-Chloro-phenyl)-2-[3-(3-cyano-5-difluoromethyl-phenoxy)-2-fluoro-4-methyl-phenyl]-acetamide]
25 | 180 to 181.4 | Cc1cc(NS(C)(=O)=O)ccc1NC(=O)Cc1ccc(C)c(Oc2cc(Cl)cc(C#N)c2)c1 [Compound I-237, 2-[3-(3-Chloro-5-cyano-phenoxy)-4-methyl-phenyl]-N-(4-methanesulfonylamino-2-methyl-phenyl)-acetamide]
26 | 229.7 to 231.3 | Cc1cc(CC(=O)Nc2ccc(S(N)(=O)=O)cc2)cc(Oc2cc(Cl)cc(C#N)c2)c1C [Compound I-182, 2-[3-(3-Chloro-5-cyano-phenoxy)-4,5-dimethyl-phenyl]-N-(4-sulfamoyl-phenyl)-acetamide]
27 | 149.1 to 151.3 | CCc1ccc(CC(=O)Nc2ccc(S(=O)(=O)NC)cc2)cc1Oc1cc(Cl)cc(C#N)c1 [Compound I-48, 2-[3-(3-Chloro-5-cyano-phenoxy)-4-ethyl-phenyl]-N-(4-methylsulfamoyl-phenyl)-acetamide]
28 | 129.5 to 132.8 | Cc1ccc(CC(=O)Nc2ccnn2C)cc1Oc1cc(Cl)cc(C#N)c1 [Compound I-227, 2-[3-(3-Chloro-5-cyano-phenoxy)-4-methyl-phenyl]-N-(2-methyl-2H-pyrazol-3-yl)-acetamide]
29 | 263 to 264.4 | Cc1cc(S(N)(=O)=O)ccc1NC(=O)Cc1ccc(Cl)c(C(=O)c2cc(Cl)cc(Cl)c2)c1 [Compound I-252, 2-[4-Chloro-3-(3,5-dichloro-benzoyl)-phenyl]-N-(2-methyl-4-sulfamoyl-phenyl)-acetamide]
30 | 211 to 213.1 | Cc1cc(CC(=O)Nc2ccc(S(N)(=O)=O)cc2)cc(C(=O)c2cccc(Cl)c2)c1 [Compound I-261, 2-[3-(3-Chloro-benzoyl)-5-methyl-phenyl]-N-(4-sulfamoyl-phenyl)-acetamide]
31 | 247.9 to 250.9 | N#Cc1cc(C#N)cc(Sc2cc(CC(=O)Nc3ccc(S(N)(=O)=O)cc3)ccc2Cl)c1 [Compound I-242, 2-[4-Chloro-3-(3,5-dicyano-phenylsulfanyl)-phenyl]-N-(4-sulfamoyl-phenyl)-acetamide]
32 | 214 to 218 | N#Cc1cc(Oc2c(Cl)ccc(CC(=O)Nc3ccc(S(N)(=O)=O)cc3)c2F)cc(C(F)F)c1 [Compound I-13, 2-[4-Chloro-3-(3-cyano-5-difluoromethyl-phenoxy)-2-fluoro-phenyl]-N-(4-sulfamoyl-phenyl)-acetamide]
33 | 239.6 to 240.7 | CCc1ccc(CC(=O)Nc2ccc(S(N)(=O)=O)cc2Cl)c(F)c1Oc1cc(C#N)cc(C(F)F)c1 [Compound I-179, N-(2-Chloro-4-sulfamoyl-phenyl)-2-[3-(3-cyano-5-difluoromethyl-phenoxy)-4-ethyl-2-fluoro-phenyl]-acetamide]
34 | 207 to 209.8 | CC(F)(F)c1cc(C#N)cc(Oc2c(Cl)ccc(CC(=O)Nc3ccc(S(N)(=O)=O)cc3)c2F)c1 [Compound I-95, 2-{4-Chloro-3-[3-cyano-5-(1,1-difluoro-ethyl)-phenoxy]-2-fluoro-phenyl}-N-(4-sulfamoyl-phenyl)-acetamide]
35 | 141.1 to 144.9 | O=C(Cc1cc2c(c(C(=O)c3ccc(Cl)cc3)c1)OCC2)Nc1ccccc1Cl [Compound I-240, 2-[7-(4-Chloro-benzoyl)-2,3-dihydro-benzofuran-5-yl]-N-(2-chloro-phenyl)-acetamide]
36 | 192 to 197.6 | CC(F)(F)c1cc(C#N)cc(Oc2c(Cl)ccc(CC(=O)Nc3ccc(S(N)(=O)=O)cc3Cl)c2F)c1 [Compound I-97, 2-{4-Chloro-3-[3-cyano-5-(1,1-difluoro-ethyl)-phenoxy]-2-fluoro-phenyl}-N-(2-chloro-4-sulfamoyl-phenyl)-acetamide]
